Here are results for 24 compounds from patent publication US10954252B1, “Inhibitors of human immunodeficiency virus replication” (ViiV HEALTHCARE UK (NO.5) LIMITED, priority 2017, dated 2021).

pEC50: −log10 of the molar value.

Data set [1] has as its system recombinant NL4-3 virus (nef section replaced with Renilla luciferase gene) in MT-2 cells. Nature of the data set: HIV cell culture assay (antiviral activity, luciferase readout). The data set is classed as cell-based. To be noted: MT-2 cells infected for 4-5 days with recombinant NL4-3 luciferase virus. The method in brief: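 NL4-3 reporter virus carrying Renilla luciferase in place of part of nef, produced in 293T cells, was used to infect MT-2 cells for 4-5 days with serial compound dilutions. Luciferase activity was read with a live-cell substrate; EC50 derived from the median effect equation.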

Data set [2] deals with uninfected MT2 cells. Nature of the data set: Compound cytotoxicity, XTT-based colorimetric assay. The data set is classed as cell-based. An outline of the steps: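 CC50 from uninfected MT2 cells run under the antiviral-assay protocol without virus. Viability read on day 4 by XTT colorimetric assay.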
In general terms: Formazan colour is commonly taken as a measure of viable cells.

A word on the pEC50: it is the negative decadic logarithm of the EC50, by convention in mol/L. As usually defined, the CC50 is the concentration giving 50% cytotoxicity. A high value points to better tolerance by the cells. Consider `COc1ccc2c(=O)n(-c3ccc(Cl)c4c(NS(C)(=O)=O)nn(C)c34)c([C@H](Cc3cc(F)cc(F)c3)NC(=O)Cn3ccc(C4CC4)n3)nc2n1` (mixture of isomers) [Example 58.2, N-[(1S)-1-[3-(4-chloro-3-methanesulfonamido-1-methyl-1H-indazol-7-yl)-7-methoxy-4-oxo-3H,4H-pyrido[2,3-d]pyrimidin-2-yl]-2-(3,5-difluorophenyl)ethyl]-2-(3-cyclopropyl-1H-pyrazol-1-yl)acetamide], for which the pEC50 in data set [1] (Table 1a) was 9.77. Moreover, in data set [2] (Table 1a, day 4, XTT), the CC50 was above 1000 nM.

For `Cn1nc(NS(C)(=O)=O)c2c(Cl)ccc(-n3c([C@H](Cc4cc(F)cc(F)c4)NC(=O)Cn4nc(C(F)F)c5c4CCC5)nc4c(F)cc(F)cc4c3=O)c21` (single isomer, unassigned) [Example 100], the pEC50 in data set [1] (Table 1a) is 10.48. The CC50 in data set [2] (Table 1a, day 4, XTT) is above 1000 nM.

For `Cn1nc(NS(C)(=O)=O)c2c(Cl)ccc(-n3c([C@H](Cc4cc(F)cc(F)c4)NC(=O)Cn4nc(C(F)F)c5c4C(F)(F)[C@@H]4C[C@H]54)nc4cc(C5CC5)ccc4c3=O)c21` (mixture of isomers) [Example 198, N—((S)-1-(3-(4-chloro-1-methyl-3-(methylsulfonamido)-1H-indazol-7-yl)-7-cyclopropyl-4-oxo-3,4-dihydroquinazolin-2-yl)-2-(3,5-difluorophenyl)ethyl)-2-((3bS,4aR)-3-(difluoromethyl)-5,5-difluoro-3b,4,4a,5-tetrahydro-1H-cyclopropa[3,4]cyclopenta[1,2-c]pyrazol-1-yl)acetamide], the pEC50 in data set [1] (Table 1a) is 9.82. The compound further had a CC50 in data set [2] (Table 1a, day 4, XTT) above 1000 nM.

In the case of `Cn1nc(NS(C)(=O)=O)c2c(Cl)ccc(-n3c([C@H](Cc4cc(F)cc(F)c4)NC(=O)Cn4nc(C(F)F)c5c4C(F)(F)[C@@H]4C[C@H]54)nc4cc(Cl)ccc4c3=O)c21` (mixture of isomers) [Example 168, N—((S)-1-(7-chloro-3-(4-chloro-1-methyl-3-(methylsulfonamido)-1H-indazol-7-yl)-4-oxo-3,4-dihydroquinazolin-2-yl)-2-(3,5-difluorophenyl)ethyl)-2-((3bS,4aR)-3-(difluoromethyl)-5,5-difluoro-3b,4,4a,5-tetrahydro-1H-cyclopropa[3,4]cyclopenta[1,2-c]pyrazol-1-yl)acetamide], the pEC50 in data set [1] (Table 1a) was 10.24. The CC50 in data set [2] (Table 1a, day 4, XTT) was above 1000 nM.

In the case of `COc1cccc2c(=O)n(-c3ccc(Cl)c4c(NS(C)(=O)=O)nn(C)c34)c([C@H](Cc3cc(F)cc(F)c3)NC(=O)Cn3nc(C(F)F)c4c3C(F)(F)[C@@H]3C[C@H]43)nc12` (single isomer, unassigned) [Example 104], the pEC50 in data set [1] (Renilla, NL43, Table 1a) is 10.19. In data set [2] (Table 1a, day 4, XTT), this compound displayed a CC50 above 1000 nM.

On to `Cn1nc(NS(C)(=O)=O)c2c(Cl)ccc(-n3c([C@H](Cc4cc(F)cc(F)c4)NC(=O)Cn4nc(C(F)F)c5c4C(F)(F)[C@@H]4C[C@H]54)nc4ccc(Cl)c(F)c4c3=O)c21` (single isomer, unassigned) [Example 177], for which the pEC50 in data set [1] (Table 1a) is 7.35. Moreover, the CC50 in data set [2] (Table 1a, day 4, XTT) was above 1000 nM.

For the compound `Cn1nc(NS(C)(=O)=O)c2c(Cl)ccc(-n3c([C@H](Cc4cc(F)cc(F)c4)NC(=O)Cn4nc(C(F)F)c5c4C(F)(F)[C@@H]4C[C@H]54)nc4c(F)ccc(F)c4c3=O)c21` (single isomer, unassigned) [Example 148], the pEC50 in data set [1] (Table 1a) was 9.89. In data set [2] (Table 1a, day 4, XTT), this compound displayed a CC50 above 1000 nM.

Consider `Cn1ccc2nc([C@@H](Cc3cc(F)cc(F)c3)NC(=O)Cn3nc(C(F)F)c4c3C(F)(F)[C@@H]3C[C@H]43)c(-c3ccc(Cl)c4c(NS(C)(=O)=O)nn(C)c34)cc21` (single isomer, unassigned) [Example 122], for which, in data set [1] (Table 1a), the pEC50 was 6.76. Further, the CC50 in data set [2] (Table 1a, day 4, XTT) was above 10000 nM.

In the case of `Cn1nc(NS(C)(=O)=O)c2c(Cl)ccc(-c3cc4[nH]ccc4nc3C(Cc3cc(F)cc(F)c3)NC(=O)Cn3nc(C(F)F)c4c3C(F)(F)[C@@H]3C[C@H]43)c21` (single isomer, unassigned) [Example 5.3], in data set [1] (Table 1), the negative logarithm of the EC50 (pEC50) is 9.70. The CC50 in data set [2] (Table 1, day 4, XTT) is above 10000 nM.

In the case of `COc1ccc2nc([C@H](Cc3cc(F)cc(F)c3)NC(=O)Cn3nc(C(F)F)c4c3C(F)(F)[C@@H]3C[C@H]43)n(-c3ccc(Cl)c4c(NS(C)(=O)=O)nn(C)c34)c(=O)c2c1` (single isomer, unassigned) [Example 174], in data set [1] (Table 1a), the pEC50 was 10.02. The CC50 in data set [2] (Table 1a, day 4, XTT) was above 1000 nM.

In the case of `COc1cc(F)c2c(=O)n(-c3ccc(Cl)c4c(NS(C)(=O)=O)nn(C)c34)c([C@H](Cc3cc(F)cc(F)c3)NC(=O)Cn3nc(C(F)F)c4c3C(F)(F)[C@@H]3C[C@H]43)nc2c1` (single isomer, unassigned) [Example 187], in data set [1] (Table 1a), the negative logarithm of the EC50 (pEC50) was 6.75. Further, the CC50 in data set [2] (Table 1a, day 4, XTT) is above 1000 nM.

As to `O=C(Cn1nc(C(F)F)c2c1C(F)(F)[C@@H]1C[C@H]21)NC(Cc1cc(F)cc(F)c1)c1nc2ncsc2cc1-c1ccc2scnc2c1` (single isomer, unassigned) [Example 1.2], the pEC50 in data set [1] (Table 1) was 5.55. The compound also registered a CC50 in data set [2] (Table 1, day 4, XTT) above 33300 nM.

For `Cc1nc2nc(C(Cc3cc(F)cc(F)c3)NC(=O)Cn3nc(C(F)F)c4c3CCC4)c(-c3ccc(Cl)c4c(NS(C)(=O)=O)nn(C)c34)cc2s1` (single isomer, unassigned) [Example 2.4, N-(1-(6-(4-chloro-1-methyl-3-(methylsulfonamido)-1H-indazol-7-yl)-2-methylthiazolo[4,5-b]pyridin-5-yl)-2-(3,5-difluorophenyl)ethyl)-2-(3-(difluoromethyl)-5,6-dihydrocyclopenta[c]pyrazol-1(4H)-yl)acetamide], the pEC50 in data set [1] (Table 1) is 6.16. In addition, the CC50 in data set [2] (Table 1, day 4, XTT) was above 10000 nM.

Turning to `Cn1nc(NS(C)(=O)=O)c2c(Cl)ccc(-c3c(C(Cc4cc(F)cc(F)c4)NC(=O)Cn4nc(C(F)F)c5c4C(F)(F)[C@@H]4C[C@H]54)ncc4[nH]cnc34)c21` (single isomer, unassigned) [Example 7.4], in data set [1] (Table 1), the pEC50 was 6.52. This compound also yielded a CC50 in data set [2] (Table 1, day 4, XTT) above 10000 nM.

`CS(=O)(=O)Nc1nn(CC(F)(F)F)c2c(-c3cc4[nH]ncc4nc3[C@H](Cc3cc(F)cc(F)c3)NC(=O)Cn3nc(C(F)F)c4c3C(F)(F)[C@@H]3C[C@H]43)ccc(Cl)c12` (single isomer, unassigned) [Example 95]: the pEC50 in data set [1] (Table 1a) is 10.03. The same compound registered a CC50 in data set [2] (Table 1a, day 4, XTT) above 1000 nM.

On to `Cn1nc(NS(C)(=O)=O)c2c(Cl)ccc(-n3c([C@H](Cc4cc(F)cc(F)c4)NC(=O)Cn4nc(C(F)F)c5c4C(F)(F)[C@@H]4C[C@H]54)nc4cc(Cl)cc(Cl)c4c3=O)c21` (single isomer, unassigned) [Example 180], for which the pEC50 in data set [1] (Table 1a) is 7.06. Further, the CC50 in data set [2] (Table 1a, day 4, XTT) is above 1000 nM.

`CS(=O)(=O)Nc1nn(CC(F)F)c2c(-c3cc4[nH]ncc4nc3[C@H](Cc3cc(F)cc(F)c3)NC(=O)Cn3nc(C(F)F)c4c3C(F)(F)[C@@H]3C[C@H]43)ccc(Cl)c12` (single isomer, unassigned) [Example 93]: the pEC50 in data set [1] (Table 1a) was 10.00. The same compound registered a CC50 in data set [2] (Table 1a, day 4, XTT) above 10000 nM.

Consider `Cn1nc(NS(C)(=O)=O)c2c(Cl)ccc(-n3c([C@H](Cc4cc(F)cc(F)c4)NC(=O)Cn4nc(C(F)F)c5c4C(F)(F)[C@@H]4C[C@H]54)nc4ccc(F)c(Cl)c4c3=O)c21` (single isomer, unassigned) [Example 161], for which the pEC50 in data set [1] (Table 1a) is 7.54. Also, the CC50 in data set [2] (Table 1a, day 4, XTT) was above 1000 nM.

As to `Cc1cccc2c(=O)n(-c3ccc(Cl)c4c(NS(C)(=O)=O)nn(C)c34)c([C@H](Cc3cc(F)cc(F)c3)NC(=O)Cn3nc(C(F)F)c4c3C(F)(F)[C@@H]3C[C@H]43)nc12` (single isomer, unassigned) [Example 98], the pEC50 in data set [1] (Table 1a) is 9.13. Moreover, in data set [2] (Table 1a, day 4, XTT), the CC50 was above 1000 nM.

Regarding `COc1c(F)ccc2c(=O)n(-c3ccc(Cl)c4c(NS(C)(=O)=O)nn(C)c34)c([C@H](Cc3cc(F)cc(F)c3)NC(=O)Cn3nc(C(F)F)c4c3C(F)(F)[C@@H]3C[C@H]43)nc12` (single isomer, unassigned) [Example 110], in data set [1] (Table 1a), the pEC50 was 10.14. The CC50 in data set [2] (Table 1a, day 4, XTT) was above 1000 nM.

Regarding `Cc1cccc2nc([C@H](Cc3cc(F)cc(F)c3)NC(=O)Cn3ccc(C4CC4)n3)n(-c3ccc(Cl)c4c(NS(C)(=O)=O)nn(C)c34)c(=O)c12` (single isomer, unassigned) [Example 134], the pEC50 in data set [1] (Table 1a) was 8.66. The compound also gave a CC50 in data set [2] (Table 1a, day 4, XTT) above 1000 nM.

Turning to `Cn1ccc2nc([C@H](Cc3cc(F)cc(F)c3)NC(=O)Cn3nc(C(F)F)c4c3C(F)(F)[C@@H]3C[C@H]43)c(-c3ccc(Cl)c4c(NS(C)(=O)=O)nn(C)c34)cc21` (single isomer, unassigned) [Example 120], the pEC50 in data set [1] (Table 1a) was 10.12. This compound also returned a CC50 in data set [2] (Table 1a, day 4, XTT) above 10000 nM.

Turning to `CC(C)c1ccc(-c2cc3[nH]ccc3nc2[C@H](Cc2cc(F)cc(F)c2)NC(=O)Cn2nc(C(F)F)c3c2C(F)(F)[C@@H]2C[C@H]32)cn1` [Example 82, 2-((3bS,4aR)-3-(difluoromethyl)-5,5-difluoro-3b,4,4a,5-tetrahydro-1H-cyclopropa[3,4]cyclopenta[1,2-c]pyrazol-1-yl)-N—((S)-2-(3,5-difluorophenyl)-1-(6-(6-isopropylpyridin-3-yl)-1H-pyrrolo[3,2-b]pyridin-5-yl)ethyl)acetamide], the pEC50 in data set [1] (Renilla, NL43, Table 1a) was 8.42. Moreover, the CC50 in data set [2] (Table 1a, day 4, XTT) worked out at 6310 nM.

Turning to `COc1ccc2c(=O)n(-c3ccc(Cl)c4c(NS(C)(=O)=O)nn(CC(F)F)c34)c([C@H](Cc3cc(F)cc(F)c3)NC(=O)Cn3ccc(C4CC4)n3)nc2n1` (atropisomer, axis not shown) [Example 55.2, N-[(1S)-1-{3-[4-chloro-1-(2,2-difluoroethyl)-3-methanesulfonamido-1H-indazol-7-yl]-7-methoxy-4-oxo-3H,4H-pyrido[2,3-d]pyrimidin-2-yl}-2-(3,5-difluorophenyl)ethyl]-2-(3-cyclopropyl-1H-pyrazol-1-yl)acetamide], in data set [1] (Table 1a), the pEC50 is 9.48. For the same compound, the 50% cytotoxic concentration (CC50) in data set [2] (Table 1a, day 4, XTT) is above 1000 nM.
